Measurements: US12247032B2, “Substituted pyrazolo[1,5-a]pyrimidines as inhibitors of JAK kinases” (Genentech, Inc., priority 2019, dated 2025)
Where two headings read alike, the source gives them in different places.

Assays:
[1] = target: T1, recombinant human JAK1 kinase domain protein (Residues 854-1154) (Homo sapiens, UniProt P23458); experiment: JAK1 biochemical assay (microfluidic mobility shift, peptide phosphorylation); conditions: 25 μM ATP, 1 nM total JAK1; Ki calculated from Ki app (tight-binding, competitive); read-out: Biochem JAK1 Ki
T1 construct: human JAK1 kinase domain protein (Residues 854-1154); purchased Proteros Biostructures GmbH (Martinsried, Germany); host or cells: insect cells
T1 sequence (P23458 854-1154): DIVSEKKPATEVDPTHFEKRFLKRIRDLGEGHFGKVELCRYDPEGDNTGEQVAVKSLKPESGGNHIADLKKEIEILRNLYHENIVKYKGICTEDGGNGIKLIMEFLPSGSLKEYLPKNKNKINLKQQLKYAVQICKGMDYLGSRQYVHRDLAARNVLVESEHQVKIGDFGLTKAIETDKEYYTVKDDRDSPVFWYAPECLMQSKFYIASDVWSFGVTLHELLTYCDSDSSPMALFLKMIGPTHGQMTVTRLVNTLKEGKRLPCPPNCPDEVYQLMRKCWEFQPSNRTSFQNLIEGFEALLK
Procedure: (§1) The in vitro biochemical assays quantify JAK-catalyzed phosphorylation of a synthetic peptide, as detected using a LabChip® EZ Reader II microfluidic mobility shift instrument (PerkinElmer; Waltham, MA). The substrate peptide Y-1B has the sequence 5-FAM-VALVDGYFRLTT-NH2. Y-1B is fluorescently labeled on the N-terminus with 5-FAM (5-carboxyfluorescein) and contains a single tyrosine residue (Y) that can be phosphorylated by JAK activity. The substrate peptide stock is prepared in DMSO at 5 mM. Purified recombinant human JAK1 kinase domain protein (Residues 854-1154) was expressed in insect cells and procured from Proteros Biostructures GmbH (Martinsried, Germany). Recombinant human JAK2 kinase domain protein (Residues 812-1132) was expressed in insect cells and purified at Genentech, Inc. (South San Francisco, CA).
(§2) The kinase reaction mixtures contained 100 mM 4-(2-hydroxyethyl)-1-piperazineethanesulfonic acid (HEPES) buffer (pH 7.2), 10 mM magnesium chloride, 0.015% Brij® 35, 4 mM dithiothreitol, 1.5 μM Y-1B peptide substrate, 25 μM adenosine triphosphate (ATP), 1 nM total JAK1 or 0.2 nM total JAK2, and up to 1000 nM test compound in a final concentration of 2% (volume to volume [v/v]) DMSO. In each titration experiment, test compound was tested in duplicate at each of the twelve concentrations. Blank reactions contained ATP, peptide, and DMSO, but no JAK or test compound, whereas uninhibited control reactions contained ATP, peptide, JAK, and DMSO, but no test compound.
(§3) Peptide plus ATP mixture (24 μL) was added to 1 μL of test compound in DMSO (or DMSO alone). The reactions were initiated by adding 25 μL of JAK enzyme to the inhibitor/peptide/ATP mixture before thoroughly mixing the resultant solution. Reactions were incubated at room temperature (22° C.-23° C.) in a final volume of 50 μL per well in 384-well plates. After a 30-minute incubation, the reactions were stopped by adding 25 μL of 150 mM ethylenediaminetetraacetic acid in 100 mM HEPES buffer (pH 7.2) containing 0.015% Brij 35 to each well.
(§4) In each reaction, the residual Y-1B substrate and the phospho-peptide product generated were separated using the EZ Reader 1 instrument. Electrophoretic separation of molecules of product from molecules of substrate was achieved using downstream and upstream voltages of −500 and −2600 V, respectively, at an operating pressure of −1.3 psi. The 5-FAM group present on both the substrate and product peptides was excited at 488 nm, the fluorescence was detected at 530 nm, and the peak heights were reported.
(§5) The extent (or percent) of conversion of substrate to product was calculated from the corresponding peak heights in the electropherogram using HTS Well Analyzer software, Version 5.2 (PerkinElmer), and the following equation (Equation 1): % conversion=[P[…](S+P)]×100 Equation 1 where S and P represent the peak heights of the substrate and product, respectively. After any baseline signal from blank wells containing no JAK was subtracted from the signal of all test wells, the % conversion data were converted to fractional activity as shown in Equation 2, where νi and νo are the % conversion in the presence and absence of test compound, respectively. The % conversion observed in the uninhibited control reactions containing JAK and DMSO vehicle, but no test compound, was defined to have fractional activity=1 (with no inhibitor present, νi=νo), whereas blank wells with no JAK were defined as having fractional activity=0. Fractional activity was plotted against test compound concentration and the data were fitted using XLfit software (IDBS; Guildford, United Kingdom) to a tight-binding apparent inhibition constant (Ki^app) quadratic equation (see Equation 2) (Williams J W, Morrison J F. The kinetics of reversible tight-binding inhibition. Methods Enymol 1979; 63:437-67), which was used to calculate fractional activity and Ki^app […]

[2] = target: T2, Recombinant human JAK2 kinase domain protein (Residues 812-1132) (Homo sapiens, UniProt O60674); experiment: JAK2 biochemical assay (microfluidic mobility shift, peptide phosphorylation); conditions: 25 μM ATP, 0.2 nM total JAK2; Ki calculated from Ki app (tight-binding, competitive); read-out: Biochem JAK2 Ki
T2 construct: human JAK2 kinase domain protein (Residues 812-1132); made in house; host or cells: insect cells
T2 sequence (O60674 812-1132): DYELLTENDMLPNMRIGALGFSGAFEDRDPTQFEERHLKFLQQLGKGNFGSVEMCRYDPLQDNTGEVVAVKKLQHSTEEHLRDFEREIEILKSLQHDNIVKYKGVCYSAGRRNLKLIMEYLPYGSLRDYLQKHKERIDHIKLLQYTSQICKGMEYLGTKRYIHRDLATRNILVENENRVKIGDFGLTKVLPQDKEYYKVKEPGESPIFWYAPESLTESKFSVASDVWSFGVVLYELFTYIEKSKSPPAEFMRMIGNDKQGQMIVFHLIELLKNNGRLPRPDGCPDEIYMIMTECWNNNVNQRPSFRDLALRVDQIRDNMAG
Procedure: as §1, §2, §3, §4, §5

[3] = tested on: JAK1 (IL-13-stimulated STAT6 phosphorylation in BEAS-2B cells); experiment: P-STAT6 BEAS-2B+IL-13 cell assay; format: cell-based, human; conditions: 1 hour compound, IL-13 15 minutes, IC50 by four-parameter fit, read-out: Cellular JAK1 PSTAT6 BEAS2B + IL13
Procedure: In order to study the effect of JAK1 inhibitors in a cell line that is relevant to the cell biology of human asthma, an IL-13-stimulated STAT6 phosphorylation assay in the human lung bronchial epithelial BEAS-2B cell line was developed.
BEAS-2B cells (ATCC® CRL-9609™) were grown in Bronchial Epithelial Growth Medium (BEGM) (Lonza Catalog No. CC-3170; Walkersville, MD; or PromoCell Catalog No. C-21060; Heidelberg, Germany). Test compound stock solutions (0.5 mM in DMSO) were serially diluted 1:2 in DMSO to generate a 10-point concentration curve (at 500× test concentration), which was further diluted by a 50-fold dilution step in BEGM to generate a 10× concentration curve (in 2% DMSO). Cells were plated at 100,000 cells/well in 200 μL of BEGM in 96-well plates and incubated for 48 hours at 37° C. in a humidified incubator. Medium was aspirated from the cells and replaced with 70 μL of fresh BEGM. Diluted test compound (10 μL; or 2% DMSO in assay medium) was added to the cells, and the plates were incubated for 1 hour at 37° C. in a humidified incubator. Twenty μL of 250 ng/mL human recombinant IL-13 (Bio Techne Catalog No. 213-ILB) was then added to the cells and incubated for 15 minutes at 37° C. Medium was aspirated from the cells and 60 μL of ice-cold 1×cell lysis buffer (Cell Signaling Technologies; Catalog No. 9803S) containing 1 mM PMSF was added to the cells. Assay plates were incubated at −80° C. for at least 1 hour. P-STAT6 was measured by coating GAR plates (MSD; Catalog No. L45RA-1) with rabbit anti-human total STAT6 antibody (Cell Signaling Technologies; Catalog No. 9362S), incubating the cell lysates in the coated plates overnight at 4° C., and then detecting with mouse anti-phospho-STAT6 (Tyr641) Clone 16E12 antibody (Millipore; Catalog No. 05-590, custom labeled by MSD with SULFO-tag) using standard MSD plate processing, washing, and detection protocols. Plates were read on the MESO SECTOR S600.
Data analysis was performed by subtracting negative control values from all wells and determining percent of control using the positive control values; the IC50 was determined with a four-parameter logistic fit model as shown in Equation 4.

| SMILES | Ki [1] [nM] | Ki [2] [nM] | IC50 ([3]; Homo sapiens, BEAS-2B, 1 h) [nM] | IC50 [3] [nM] |
| --- | --- | --- | --- | --- |
| CN1CCN(CCn2nnc(Cn3cc(NC(=O)c4cnn5cccnc45)c(-c4cc(Cl)ccc4OC(F)F)n3)n2)CC1 [Example 39, N-[3-[5-chloro-2-(difluoromethoxy)phenyl]-1-[[2-[2-(4-methylpiperazin-1-yl)ethyl]tetrazol-5-yl]methyl]pyrazol-4-yl]pyrazolo[1,5-a]pyrimidine-3-carboxamide] | 1.3 | 0.69 | 36 | – |
| CN(C)[C@H]1C[C@@H](N2CC(n3nnc(Cn4cc(NC(=O)c5cnn6cccnc56)c(-c5cc(OC(F)F)ccc5OC(F)F)n4)n3)C2)C1 [Example 71, N-[3-[2,5-bis(difluoromethoxy)phenyl]-1-[[2-[1-[3-(dimethylamino)cyclobutyl]azetidin-3-yl]tetrazol-5-yl]methyl]pyrazol-4-yl]pyrazolo[1,5-a]pyrimidine-3-carboxamide] | 1.4 | 1.1 | 23 | – |
| CN(C)CCCCN1CC(n2nnc(Cn3cc(NC(=O)c4cnn5cccnc45)c(-c4cc(OC(F)F)ccc4OC(F)F)n3)n2)C1 [Example 55, N-[3-[2,5-bis(difluoromethoxy)phenyl]-1-[[2-[1-[4-(dimethylamino)butyl]azetidin-3-yl]tetrazol-5-yl]methyl]pyrazol-4-yl]pyrazolo[1,5-a]pyrimidine-3-carboxamide] | 0.6 | 0.58 | 44 | – |
| CN(C)C1CCN(CCn2nnnc2Cn2cc(NC(=O)c3cnn4cccnc34)c(-c3cc(OC(F)F)ccc3OC(F)F)n2)CC1 [Example 60, N-[3-[2,5-bis(difluoromethoxy)phenyl]-1-[[1-[2-[4-(dimethylamino)-1-piperidyl]ethyl]tetrazol-5-yl]methyl]pyrazol-4-yl]pyrazolo[1,5-a]pyrimidine-3-carboxamide] | 0.81 | 0.97 | 70 | – |
| CN1CC(Cn2nnc(Cn3cc(NC(=O)c4cnn5cccnc45)c(-c4cc(OC(F)F)ccc4OC(F)F)n3)n2)C1 [Example 32, N-[3-[2,5-bis(difluoromethoxy)phenyl]-1-[[2-[(1-methylazetidin-3-yl)methyl]tetrazol-5-yl]methyl]pyrazol-4-yl]pyrazolo[1,5-a]pyrimidine-3-carboxamide] | 0.72 | 0.62 | 22 | – |

Compounds with a lower Ki [1], results first:

| Ki [1] [nM] | Ki [2] [nM] | SMILES | IC50 ([3]; Homo sapiens, BEAS-2B, 1 h) [nM] | IC50 [3] [nM] |
| --- | --- | --- | --- | --- |
| 0.53 | 0.42 | CN(C)CCN1CCC(n2nnc(Cn3cc(NC(=O)c4cnn5cccnc45)c(-c4cc(OC(F)F)ccc4OC(F)F)n3)n2)C1 (single isomer, unassigned) [Example 67, N-[3-[2,5-bis(difluoromethoxy)phenyl]-1-[[2-[1-[2-(dimethylamino)ethyl]pyrrolidin-3-yl]tetrazol-5-yl]methyl]pyrazol-4-yl]pyrazolo[1,5-a]pyrimidine-3-carboxamide] | 56 | – |
| 0.23 | 0.12 | O=C(Nc1cn(Cc2nnn(C3COC3)n2)nc1-c1cc(Cl)ccc1OC(F)F)c1cnn2cccnc12 [Example 4, N-[3-[5-chloro-2-(difluoromethoxy)phenyl]-1-[[2-(oxetan-3-yl)tetrazol-5-yl]methyl]pyrazol-4-yl]pyrazolo[1,5-a]pyrimidine-3-carboxamide] | 6.8 | – |
| 0.55 | 0.56 | CN1CC(Cn2nnnc2Cn2cc(NC(=O)c3cnn4cccnc34)c(-c3cc(OC(F)F)ccc3OC(F)F)n2)C1 [Example 33, N-[3-[2,5-bis(difluoromethoxy)phenyl]-1-[[1-[(1-methylazetidin-3-yl)methyl]tetrazol-5-yl]methyl]pyrazol-4-yl]pyrazolo[1,5-a]pyrimidine-3-carboxamide] | 51 | – |
| 0.46 | 0.43 | CN(C)CCN1CCC(n2nnc(Cn3cc(NC(=O)c4cnn5cccnc45)c(-c4cc(OC(F)F)ccc4OC(F)F)n3)n2)C1 (single isomer, unassigned) [Example 68, N-[3-[2,5-bis(difluoromethoxy)phenyl]-1-[[2-[1-[2-(dimethylamino)ethyl]pyrrolidin-3-yl]tetrazol-5-yl]methyl]pyrazol-4-yl]pyrazolo[1,5-a]pyrimidine-3-carboxamide] | – | 41 |
| 0.37 | 0.22 | CSc1ccc(OC(F)F)c(-c2nn(Cc3nnn(CCN(C)C)n3)cc2NC(=O)c2cnn3cccnc23)c1 [Example 36, N-[3-[2-(difluoromethoxy)-5-methylsulfanyl-phenyl]-1-[[2-[2-(dimethylamino)ethyl]tetrazol-5-yl]methyl]pyrazol-4-yl]pyrazolo[1,5-a]pyrimidine-3-carboxamide] | 17 | – |
| 0.32 | 0.2 | CSc1ccc(OC(F)F)c(-c2nn(Cc3nnnn3CCN(C)C)cc2NC(=O)c2cnn3cccnc23)c1 [Example 41, N-[3-[2-(difluoromethoxy)-5-methylsulfanyl-phenyl]-1-[[1-[2-(dimethylamino)ethyl]tetrazol-5-yl]methyl]pyrazol-4-yl]pyrazolo[1,5-a]pyrimidine-3-carboxamide] | 14 | – |
